Earlier results as cited in publication PMC3967229 (Marine Drugs, 2014).
Like-named read-outs stand apart in the source and are kept apart here.

Legend:
[1] = system: HCT116 tumor; conditions: i.p.
[2] = system: MDA-MB-231 cells; design: method as in PMID 22543582; conditions: 10 mg/kg/day, together with dexamethasone
[3] = mouse in vivo model
[4] = rabbit in vivo model
[5] = 5 mg/kg/day
[6] = protein-assisted mechanism
[7] = not given; remark: listed apart in the source
[8] = not given; remark: listed apart in the source
[9] = design: method as in earlier work
[10] = system: HDACs 1, 2 and 3

In the case of CCCCCCCC(=O)SCC/C=C/[C@@H]1CC(=O)NCc2nc(cs2)C2=N[C@@](C)(CS2)C(=O)N[C@@H](C(C)C)C(=O)O1 [largazole], the Cellular activity is given as “low-nanomolar”, the HCT116 tumor growth ([1]; colon tumor xenograft mouse model) is given as “retarding HCT116 tumor growth” and the Acute toxicity ([1]; up to the highest dose tested (50 mg/kg), mouse) is given as “without acute toxicity”. For the same molecule, the “Invasiveness of orthotopic MDA-MB-231 tumors” value [2] was “reducing the invasiveness”, the Bone-forming activity [3] was “bone-forming activity” and the Bone-forming activity [4] was “bone-forming activity”. The Liver fibrosis [5] was “decreased liver fibrosis” and the “Conversion to largazole thiol in mouse serum” value [6] was “rapidly converted”.

For C/C=C1\NC(=O)[C@H]2CSSCC/C=C/[C@H](CC(=O)N[C@H](C(C)C)C(=O)N2)OC(=O)[C@H](C(C)C)NC1=O [romidepsin], the “Volume of distribution (Vdss)” value [7] is given as 22.3 L/kg.

In the case of O=C(CCCCCCC(=O)Nc1ccccc1)NO [vorinostat, Suberoylanilide hydroxamic acid], the “Plasma protein binding, bound to human plasma” value [8] is listed as 71.3%, the Clearance [9] is listed as 55 mL/min/kg and the Vdss [9] is listed as 0.6 L/kg. The Cellular activity was “micromolar”.

In the case of largazole thiol, the “Potency against HDAC isoforms” value [10] is given as “subnanomolar”.
